These results are taken from patent publication US20240228504A1, “SUBSTITUTED TRICYCLIC AMIDES, ANALOGUES THEREOF, AND METHODS USING SAME” (Arbutus Biopharma Corporation, priority 2020, published 2024).

For the experiment, the system named is HBV rcDNA in HepDE19 cells. Description: HepDE19 assay with bDNA quantitation of HBV rcDNA. Type of experiment: cell-based, hepatitis B virus. The note with it: Hepatitis B virus, HepDE19, HepDE19 assay, inhibition of rcDNA formation, bDNA quantitation; read-out: DE-19bDNA EC50.
As to `CN(C(=O)c1cc2ccnc(Cl)c2[nH]1)[C@@H]1COCc2[nH]c(=O)c3cc(F)c(F)cc3c21` [Compound 371, (S)-7-Chloro-N-(8,9-difluoro-6-oxo-1,4,5,6-tetrahydro-2H-pyrano[3,4-c]isoquinolin-1-yl)-N-methyl-1H-pyrrolo[2,3-c]pyridine-2-carboxamide], the EC50 was determined as 140 nM.
Next, `CN(C(=O)c1cc2c(Cl)nccc2[nH]1)[C@@H]1COCc2[nH]c(=O)c3cc(F)c(F)cc3c21` [Compound 372, (S)-4-Chloro-N-(8,9-difluoro-6-oxo-1,4,5,6-tetrahydro-2H-pyrano[3,4-c]isoquinolin-1-yl)-N-methyl-1H-pyrrolo[3,2-c]pyridine-2-carboxamide]: 20 nM.
Regarding `CN(C(=O)c1ccn2c(Cl)ccc2c1)[C@@H]1COCc2[nH]c(=O)c3cc(F)c(F)cc3c21` [Compound 373, (S)-3-Chloro-N-(8,9-difluoro-6-oxo-1,4,5,6-tetrahydro-2H-pyrano[3,4-c]isoquinolin-1-yl)-N-methylindolizine-7-carboxamide], the EC50 is 10 nM.
To `CN(C(=O)c1cc2cc(C(F)F)ccn2c1)[C@@H]1COCc2[nH]c(=O)c3cc(F)c(F)cc3c21` [Compound 374, (S)-N-(8,9-Difluoro-6-oxo-1,4,5,6-tetrahydro-2H-pyrano[3,4-c]isoquinolin-1-yl)-7-(difluoromethyl)-N-methylindolizine-2-carboxamide] belongs 24000 nM; to `CN(C(=O)c1cc2ccc(C(F)F)cn2c1)[C@@H]1COCc2[nH]c(=O)c3cc(F)c(F)cc3c21` [Compound 375, (S)-N-(8,9-Difluoro-6-oxo-1,4,5,6-tetrahydro-2H-pyrano[3,4-c]isoquinolin-1-yl)-6-(difluoromethyl)-N-methylindolizine-2-carboxamide], 330 nM; to `CN(C(=O)c1cc2cc(F)c(F)cc2n1COP(=O)(OC(C)(C)C)OC(C)(C)C)[C@@H]1COCc2[nH]c(=O)c3cc(F)c(F)cc3c21` [Compound 376, (S)-di-tert-Butyl ((2-((8,9-difluoro-6-oxo-1,4,5,6-tetrahydro-2H-pyrano[3,4-c]isoquinolin-1-yl)(methyl)carbamoyl)-5,6-difluoro-1H-indol-1-yl)methyl)phosphate], 10 nM.
Turning to `CN(C(=O)c1cnc(C(F)(F)F)c(Cl)c1)[C@@H]1COCc2[nH]c(=O)c3cc(F)c(F)cc3c21` [Compound 377, (S)-5-Chloro-N-(8,9-difluoro-6-oxo-1,4,5,6-tetrahydro-2H-pyrano[3,4-c]isoquinolin-1-yl)-N-methyl-6-(trifluoromethyl)nicotinamide], the EC50 stood at 40 nM.
Next, `CN(C(=O)c1cc2c(Br)c(Cl)ncc2[nH]1)[C@@H]1COCc2[nH]c(=O)c3cc(F)c(F)cc3c21` [Compound 384, (S)-4-Bromo-5-chloro-N-(8,9-difluoro-6-oxo-1,4,5,6-tetrahydro-2H-pyrano[3,4-c]isoquinolin-1-yl)-N-methyl-1H-pyrrolo[2,3-c]pyridine-2-carboxamide]: 20 nM; `CN(C(=O)c1cc2c(C(F)F)cccn2c1)[C@@H]1COCc2[nH]c(=O)c3cc(F)c(F)cc3c21` [Compound 407, (S)-N-(8,9-difluoro-6-oxo-1,4,5,6-tetrahydro-2H-pyrano[3,4-c]isoquinolin-1-yl)-8-(difluoromethyl)-N-methylindolizine-2-carboxamide]: 10 nM; `CN(C(=O)c1ccc2c(c1)CCC2)[C@@H]1COCc2[nH]c(=O)c3cc(F)c(F)cc3c21` [Compound 408, (S)-N-(8,9-Difluoro-6-oxo-1,4,5,6-tetrahydro-2H-pyrano[3,4-c]isoquinolin-1-yl)-N-methyl-2,3-dihydro-1H-indene-5-carboxamide]: 40 nM.
To `CN(C(=O)c1ccc2ncoc2c1)[C@@H]1COCc2[nH]c(=O)c3cc(F)c(F)cc3c21` [Compound 409, (S)-N-(8,9-Difluoro-6-oxo-1,4,5,6-tetrahydro-2H-pyrano[3,4-c]isoquinolin-1-yl)-N-methylbenzo[d]oxazole-6-carboxamide] belongs 2300 nM.
